From patent publication US20040048772A1, “Preventives for arthritis” (priority 2001, published 2004)

Legend:
[1] = system: animal model for arthritis; conditions: administration after induction of arthritis; cited from earlier work
[2] = system: Mice with Type II Collagen-Induced Arthritis; assay: Effect of N-acetylhydroxyproline in mice with type II collagen-induced arthritis (arthritis score, preventive feeding); type: in vivo, DBA/1J mice; conditions: for Score of arthritis: mean±SE, N=20, score 0-16 points
Description: Effect of N-acetylhydroxyproline in Mice with Type II Collagen-Induced Arthritis
It is known that arthritis is induced in DBA/1J mice (Charles River) by administering type II collagen two times.
As the first administration of type II collagen, a solution prepared by mixing an equal amount of type II collagen [Collagen Gijutsu Kenshu-Kai (MCK)] and Freund's complete adjuvant (Iatron) and emulsifying the mixture using a homogenizer was intradermally administered to 6-week old male DBA/1J mice (Charles River) in an amount of 100 μl per one animal.
At day 21 after the first administration of type II collagen, as the second administration of type II collagen, a solution prepared by mixing an equal amount of type II collagen and Freund's complete adjuvant and emulsifying the mixture using a homogenizer in a similar manner was intradermally administered to the animals in an amount of 100 μl per one animal. In this manner, arthritis was induced in mice.
Starting on the day of the first administration of type II collagen, the mice were bred by feeding a powder feed, CE-2 (CLEA Japan), containing the addition of 0.02, 0.1 or 0.5% (hereinafter % refers to wt %) of N-acetylhydroxyproline (Kyowa Hakko Kogyo). As control, a group of mice were fed with the powder feed CE-2 containing no additive. At days 23, 27, 30, 33, 36, 40 and 42 after the first administration of type II collagen, the extent of the onset of arthritis was scored according to the following indices.
Scoring was carried out by applying 0-4 points with respect to […] of mice: 0: no symptom; 1: swelling of one finger or swelling (slight) of ankles; 2: swelling of 1-3 fingers or swelling of ankles; 3: swelling of 3-5 fingers plus swelling of ankles; and 4: swelling of all the fingers plus swelling of ankles. Each mouse was scored the total of the points of 4 paws, namely, 0-16 points. Twenty mice each were subjected to observation with respect to each of the conditions.
In the table, the figures show the score under different treatment conditions, which is given as mean±SE (N=20).
In the table, “no treatment” means no treatment with type II collagen.

[3] = system: systemic injury of ear and tail; chondral injury at joints; conditions: in vivo; cited from earlier work

CC(=O)N1C[C@H](O)C[C@H]1C(=O)O [N-Acetylhydroxyproline, N-acetylhydroxyproline]
Aggravation of arthritis [1]: can prevent aggravation of arthritis
Rising of the score of arthritis compared with feed containing no additive ([2]; 0.02% in powder feed CE-2): suppressive tendency
Score of arthritis ([2]; 0.02% in powder feed CE-2, day 23): 0.0 ± 0.0
Score of arthritis ([2]; 0.02% in powder feed CE-2, day 27): 4.2 ± 0.8
Score of arthritis ([2]; 0.02% in powder feed CE-2, day 30): 7.6 ± 0.9
Score of arthritis ([2]; 0.02% in powder feed CE-2, day 33): 9.3 ± 0.8
Score of arthritis ([2]; 0.02% in powder feed CE-2, day 36): 9.7 ± 0.9
Score of arthritis ([2]; 0.02% in powder feed CE-2, day 40): 10.0 ± 0.8
Score of arthritis ([2]; 0.02% in powder feed CE-2, day 42): 10.1 ± 0.9
Score of arthritis ([2]; 0.02% in powder feed CE-2 from first collagen administration, day 0): 0.0 ± 0.0
Rising of the score of arthritis compared with feed containing no additive ([2]; 0.1% in powder feed CE-2): suppressive tendency
Score of arthritis ([2]; 0.1% in powder feed CE-2, day 23): 0.1 ± 0.1
Score of arthritis ([2]; 0.1% in powder feed CE-2, day 27): 4.6 ± 0.9
Score of arthritis ([2]; 0.1% in powder feed CE-2, day 30): 7.3 ± 1.0
Score of arthritis ([2]; 0.1% in powder feed CE-2, day 33): 8.3 ± 1.1
Score of arthritis ([2]; 0.1% in powder feed CE-2, day 36): 8.6 ± 1.0
Score of arthritis ([2]; 0.1% in powder feed CE-2, day 40): 8.5 ± 1.0
Score of arthritis ([2]; 0.1% in powder feed CE-2, day 42): 8.7 ± 1.0
Score of arthritis ([2]; 0.1% in powder feed CE-2 from first collagen administration, day 0): 0.0 ± 0.0
Scores of arthritis compared with control (feed containing no addition) ([2]; 0.5% in powder feed CE-2): significantly low
Score of arthritis ([2]; 0.5% in powder feed CE-2, day 23): 0.0 ± 0.0
Score of arthritis ([2]; 0.5% in powder feed CE-2, day 27): 3.8 ± 0.7
Score of arthritis ([2]; 0.5% in powder feed CE-2, day 30): 5.9 ± 0.9
Score of arthritis ([2]; 0.5% in powder feed CE-2, day 33): 7.7 ± 0.8
Score of arthritis ([2]; 0.5% in powder feed CE-2, day 36): 8.1 ± 0.8
Score of arthritis ([2]; 0.5% in powder feed CE-2, day 40): 8.4 ± 0.7
Score of arthritis ([2]; 0.5% in powder feed CE-2, day 42): 8.5 ± 0.7
Score of arthritis ([2]; 0.5% in powder feed CE-2 from first collagen administration, day 0): 0.0 ± 0.0
Onset of arthritis ([2]; taken previously, before the onset of arthritis): could be suppressed
Effect on chondral injury at joints [3]: no effect
Effect on systemic injury of ear and tail [3]: shows a therapeutic effect
